{"source": "patent US9575054B2", "about": "“Identification of antitumor compounds using placenta” (Anthrogenesis Corporation, priority 2013, dated 2017)", "type_in_all_cases": "cell-based, human", "key": {"[1]": {"system": "MDA-MB231/Luciferase positive cells", "experiment": "Luciferase expression (IVIS imaging) of MDA-MB231/Luciferase cells in placental cotyledon", "settings": "TSA 100 ng/mL, 4 days in bioreactor, single cotyledon", "method": "MDA-MB231/Luciferase positive cells were infused into the vasculature of a single isolated cotyledon (40×10^6 cells/cotyledon). Trichostatin A (TSA, 100 ng/mL) was added to the growth medium (300 mL) and the cells were cultured for 4 days in a bioreactor. As a control, an equivalent number (40×10^6 cells/cotyledon) of MDA-MB231/Luc cells were infused into the vasculature of a single isolated cotyledon and cultured in growth medium only for 4 days in a bioreactor. After 4 days of culture, each cotyledon was transferred to growth medium comprising Luciferin (150 ng/mL) for 10 minutes. Both cotyledons then were analyzed using the IVIS imaging system."}, "[2]": {"system": "HCT116 cells", "experiment": "MTS cell viability, HCT116 cells seeded on decellularized placental vascular scaffold (DPVS)", "settings": "48 hours, control 100.00%", "method": "(§1) Blocks of decellularized placental vascular scaffold (DPVS) in 24-well plates were seeded with HCT116 cells (1×10^5 cells/per well), a human colorectal cancer cell line. As a control, HCT116 cells were cultured in wells only, i.e., in the absence of DPVS. Trichostatin A (TSA), a drug contemplated for use in the treatment of cancer, was added to the DPVS/cells or cells alone at concentrations of 20 μM and 100 μM, or was not added at all (as a control). After 48 hours of culture, cell viability was measured by MTS assay. […] Thus, DPVS can be used a platform for assessing cancer cell killing by potential antitumor compounds."}, "[3]": {"system": "MDA-MB231/Luciferase cells", "experiment": "Luciferase activity (Xenogen IVIS) of MDA-MB231/Luciferase cells on DPVS", "settings": "TSA 100 ng/mL, 24 hours, cells on DPVS in 6-well plates; untreated 25.63×10^6", "method": "Cells expressing luciferase were detected visually and quantitatively, using the Xenogen IVIS spectrum, by measuring Luciferase activity of the cells, which is indicative of cell number.\nTo examine the anti-cancer drug effect on cancer cells grown in DPVS, 1.5×10^5 MDA-MB231/Luciferase cells (a human breast cancer (adenocarcinoma) cell line that expresses luciferase; Cell Biolabs) were seeded onto DPVS in 6-well plates. One set of cells/DPVS was treated with Trichostatin A (TSA, 100 ng/mL) for 24 hours. Luciferase expression by the TSA-treated cells cultured on DPVS was compared with control cultures comprising cells/DPVS that were not treated with TSA. […] Thus, DPVS can be used to study the ability of cancer drugs, e.g., TSA, to affect cancer cell growth in a three-dimensional context."}, "[4]": {"system": "HCT116 cells", "experiment": "MTS cell viability, HCT116 cells cultured in wells only", "settings": "HCT116 alone, 48 hours, control 100.00%", "method": "as §1"}, "[5]": {"system": "MDA-MB231/Luc and CRL1803-TT (thyroid tissue carcinoma) cells", "experiment": "MTS viable cell number of tumor cells in decellularized placental cotyledon (bioreactor)", "settings": "TSA 100 ng/mL, 10 days in bioreactor, single cotyledon, FIG. 1A", "method": "(§2) Trichostatin A (TSA, 100 ng/mL) was added to the growth medium (300 mL) and the cells were cultured for 10 days in a bioreactor. As a control, MDA-MB231/Luc and CRL1803-TT were infused into the vasculature of a single isolated cotyledon (3×10^6 cells/cotyledon) and cultured in growth medium only for 10 days in a bioreactor.\n(§3) Culture medium was collected throughout the culture period and measured for Calcitonin levels by ELISA. In addition, at the end of the culture (day-10), the numbers of viable cells in both the TSA-treated and control cotyledons were determined by MTS assay."}, "[6]": {"system": "MDA-MB231/Luc and CRL1803-TT (thyroid tissue carcinoma) cells", "experiment": "Calcitonin ELISA of culture medium from tumor cells in placental cotyledon", "settings": "TSA 100 ng/mL, 10-day culture, single cotyledon, FIG. 1B", "method": "as §2, §3"}}}
{"compound": "CC(/C=C/C(=O)NO)=C\\[C@@H](C)C(=O)c1ccc(N(C)C)cc1", "note": "[TSA, Trichostatin A]", "values": [{"measurement": "luciferase expression vs cotyledon cultured in the absence of TSA", "setting": "[1]", "result": "marked decrease in luciferase expression"}, {"measurement": "Cell viability (% of untreated control)", "setting": "[2]; TSA 20 uM", "result": 97.00, "unit": "%"}, {"measurement": "Cell viability (% of untreated control)", "setting": "[2]; TSA 100 uM", "result": 73.32, "unit": "%"}, {"measurement": "luciferase signal", "setting": "[3]", "result": "8.22×10^6"}, {"measurement": "Cell viability (% of untreated control)", "setting": "[4]; TSA 20 uM", "result": 11.21, "unit": "%"}, {"measurement": "Cell viability (% of untreated control)", "setting": "[4]; TSA 100 uM", "result": 10.36, "unit": "%"}, {"measurement": "cell survival (viable cells by MTS) vs growth medium control", "setting": "[5]", "result": "reduced cell survival"}, {"measurement": "Calcitonin production by the cells", "setting": "[6]", "result": "reduced"}]}
